In patent US12304916B2, “Thienopyridinyl and thiazolopyridinyl compounds useful as IRAK4 inhibitors” (BRISTOL-MYERS SQUIBB COMPANY, priority 2019, dated 2025):

biological target: IRAK4 (Homo sapiens (Human), UniProt Q9NWZ3); assay: IRAK4 Inhibition Assay; format: biochemical; conditions: ATP 500 μM; IRAK4 0.6 nM; 60 min at room temperature
Experimental: The assays were performed in U-bottom 384-well plates. The final assay volume was 30 μL prepared from 15 μL additions of enzyme and substrates (fluoresceinated peptide and ATP) and test compounds in assay buffer (20 mM HEPES pH 7.2, 10 mM MgCl2, 0.015% Brij 35 and 4 mM DTT). The reaction was initiated by the combination of IRAK4 with substrates and test compounds. The reaction mixture was incubated at room temperature for 60 min. and terminated by adding 45 μL of 35 mM EDTA to each sample. The reaction mixture was analyzed on the Caliper LABCHIP® 3000 (Caliper, Hopkinton, MA) by electrophoretic separation of the fluorescent substrate and phosphorylated product. Inhibition data were calculated by comparison to no enzyme control reactions for 100% inhibition and vehicle-only reactions for 0% inhibition. The final concentrations of reagents in the assays are ATP, 500 μM; FL-IPTSPITTTYFFFKKK peptide 1.5 μM; IRAK4, 0.6 nM; and DMSO, 1.6%.

IRAK4, sequence (Q9NWZ3 whole entry, species assumed): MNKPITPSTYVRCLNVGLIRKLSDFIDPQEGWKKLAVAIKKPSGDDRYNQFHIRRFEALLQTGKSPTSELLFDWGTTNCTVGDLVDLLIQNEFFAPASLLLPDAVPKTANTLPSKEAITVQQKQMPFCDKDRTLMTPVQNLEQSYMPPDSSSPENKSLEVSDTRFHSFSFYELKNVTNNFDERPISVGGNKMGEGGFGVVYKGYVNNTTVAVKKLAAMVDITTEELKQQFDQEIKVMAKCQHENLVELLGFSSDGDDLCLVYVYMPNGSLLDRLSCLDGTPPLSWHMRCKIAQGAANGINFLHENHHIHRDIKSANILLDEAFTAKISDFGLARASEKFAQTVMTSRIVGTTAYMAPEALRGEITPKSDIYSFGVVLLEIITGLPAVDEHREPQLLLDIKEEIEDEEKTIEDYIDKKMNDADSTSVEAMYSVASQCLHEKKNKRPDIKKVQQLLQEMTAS

Structure (SMILES) | IC50
CC(C)(O)[C@H](F)CNC(=O)c1cnc2sc(-c3ccccc3)nc2c1NC1CC1 [Example 1, (R)-7-(cyclopropylamino)-N-(2-fluoro-3-hydroxy-3-methylbutyl)-2-phenylthiazolo[5,4-b]pyridine-6-carboxamide] | 39.5 nM
CC(C)Nc1c(C(=O)NC[C@@H](F)C(C)(C)O)cnc2sc(-c3ccccc3)nc12 [Example 2, (R)-N-(2-fluoro-3-hydroxy-3-methylbutyl)-7-(isopropylamino)-2-phenylthiazolo[5,4-b]pyridine-6-carboxamide] | 15.5 nM
CC(C)(O)[C@H](F)CNC(=O)c1cnc2sc(-c3ccccc3)nc2c1NC1CCCC1 [Example 3, (R)-7-(cyclopentylamino)-N-(2-fluoro-3-hydroxy-3-methylbutyl)-2-phenylthiazolo[5,4-b]pyridine-6-carboxamide] | 34 nM
CC(C)(O)[C@H](F)CNC(=O)c1cnc2sc(-c3ccccc3)nc2c1NC1CCOCC1 [Example 4, (R)-N-(2-fluoro-3-hydroxy-3-methylbutyl)-2-phenyl-7-((tetrahydro-2H-pyran-4-yl)amino)thiazolo[5,4-b]pyridine-6-carboxamide] | 7.9 nM
CCNc1c(C(=O)NC[C@@H](F)C(C)(C)O)cnc2sc(-c3ccccc3)nc12 [Example 5, (R)-7-(ethylamino)-N-(2-fluoro-3-hydroxy-3-methylbutyl)-2-phenylthiazolo[5,4-b]pyridine-6-carboxamide] | 46.2 nM
C[C@H](CO)Nc1c(C(=O)NC[C@@H](F)C(C)(C)O)cnc2sc(-c3ccccc3)nc12 [Example 6, N-((R)-2-fluoro-3-hydroxy-3-methylbutyl)-7-(((R)-1-hydroxypropan-2-yl)amino)-2-phenylthiazolo[5,4-b]pyridine-6-carboxamide] | 39.8 nM
C[C@H](CO)Nc1c(C(=O)NCCC(C)(C)O)cnc2sc(-c3ccccc3)nc12 [Example 7, (R)-N-(3-hydroxy-3-methylbutyl)-7-((1-hydroxypropan-2-yl)amino)-2-phenylthiazolo[5,4-b]pyridine-6-carboxamide] | 172 nM
C[C@H](CO)Nc1c(C(=O)NCCCN2CCOCC2)cnc2sc(-c3ccccc3)nc12 [Example 8, (R)-7-((1-hydroxypropan-2-yl)amino)-N-(3-morpholinopropyl)-2-phenylthiazolo[5,4-b]pyridine-6-carboxamide] | 474 nM
C[C@H](CO)Nc1c(C(=O)NCCC#N)cnc2sc(-c3ccccc3)nc12 [Example 9, (R)-N-(2-cyanoethyl)-7-((1-hydroxypropan-2-yl)amino)-2-phenylthiazolo[5,4-b]pyridine-6-carboxamide] | 440 nM
C[C@H](CO)Nc1c(C(=O)NCCS(C)(=O)=O)cnc2sc(-c3ccccc3)nc12 [Example 10, (R)-7-((1-hydroxypropan-2-yl)amino)-N-(2-(methylsulfonyl)ethyl)-2-phenylthiazolo[5,4-b] pyridine-6-carboxamide] | 734 nM
CC(C)Nc1c(C(=O)NC[C@@H](F)C(C)(C)O)cnc2sc(-c3cccnc3)nc12 [Example 11, (R)-N-(2-fluoro-3-hydroxy-3-methylbutyl)-7-(isopropylamino)-2-(pyridin-3-yl)thiazolo[5,4-b]pyridine-6-carboxamide] | 12 nM
CC(C)(O)CCNC(=O)c1cnc2sc(-c3cccnc3)nc2c1NC1CCOCC1 [Example 12, N-(3-hydroxy-3-methylbutyl)-2-(pyridin-3-yl)-7-((tetrahydro-2H-pyran-4-yl)amino) thiazolo[5,4-b]pyridine-6-carboxamide] | 168 nM
O=C(NCCN1CCC(O)CC1)c1cnc2sc(-c3cccnc3)nc2c1NC1CCOCC1 [Example 13, N-(2-(4-hydroxypiperidin-1-yl)ethyl)-2-(pyridin-3-yl)-7-((tetrahydro-2H-pyran-4-yl)amino)thiazolo[5,4-b]pyridine-6-carboxamide] | 517 nM
CC(C)(O)[C@H](F)CNC(=O)c1cnc2sc(-c3cccnc3)nc2c1NC1CCOCC1 [Example 14, (R)-N-(2-fluoro-3-hydroxy-3-methylbutyl)-2-(pyridin-3-yl)-7-((tetrahydro-2H-pyran-4-yl)amino)thiazolo[5,4-b]pyridine-6-carboxamide] | 39.9 nM
CC(C)Nc1c(C(=O)NC[C@@H](F)C(C)(C)O)cnc2sc(Nc3ccc(-n4cccn4)cc3)nc12 [Example 15, (R)-2-((4-(1H-pyrazol-1-yl)phenyl)amino)-N-(2-fluoro-3-hydroxy-3-methylbutyl)-7-(isopropylamino)thiazolo[5,4-b]pyridine-6-carboxamide] | 2380 nM
CC(C)Nc1c(C(=O)NC[C@@H](F)C(C)(C)O)cnc2sc(Nc3cccnc3)nc12 [Example 16, (R)-N-(2-fluoro-3-hydroxy-3-methylbutyl)-7-(isopropylamino)-2-(pyridin-3-ylamino)thiazolo[5,4-b]pyridine-6-carboxamide] | 124 nM
CC(C)Nc1c(C(=O)NC[C@@H](F)C(C)(C)O)cnc2sc(Nc3ccc(S(C)(=O)=O)cc3)nc12 [Example 17, (R)-N-(2-fluoro-3-hydroxy-3-methylbutyl)-7-(isopropylamino)-2-((4-(methylsulfonyl)phenyl)amino)thiazolo[5,4-b]pyridine-6-carboxamide] | 797 nM
CC(C)Nc1c(C(=O)NCCC(F)(F)F)cnc2sc(-c3cccnc3)nc12 [Example 18, 7-(isopropylamino)-2-(pyridin-3-yl)-N-(3,3,3-trifluoropropyl) thiazolo[5,4-b]pyridine-6-carboxamide] | 323 nM
CC(C)Nc1c(C(=O)NCCC2CC2)cnc2sc(-c3cccnc3)nc12 [Example 19, N-(2-cyclopropylethyl)-7-(isopropylamino)-2-(pyridin-3-yl)thiazolo[5,4-b]pyridine-6-carboxamide] | 72.6 nM
CC(=O)O[C@H]1CC[C@H](NC(=O)c2cnc3sc(-c4cccnc4)nc3c2NC(C)C)CC1 [Example 20, (1r,4r)-4-(7-(isopropylamino)-2-(pyridin-3-yl)thiazolo[5,4-b]pyridine-6-carboxamido)cyclohexyl acetate] | 12.3 nM
CC(C)Nc1c(C(=O)NC[C@@H](F)C(C)(C)O)cnc2sc(-c3ccc4nccn4c3)cc12 [Example 26, (R)-N-(2-fluoro-3-hydroxy-3-methylbutyl)-2-(imidazo[1,2-a]pyridin-6-yl)-4-(isopropylamino)thieno[2,3-b]pyridine-5-carboxamide] | 27.7 nM
CC(C)Nc1c(C(=O)NC[C@@H](F)C(C)(C)O)cnc2sc(-c3c[nH]c4ncc(F)cc34)cc12 [Example 28, (R)-2-(5-fluoro-1H-pyrrolo[2,3-b]pyridin-3-yl)-N-(2-fluoro-3-hydroxy-3-methylbutyl)-4-(isopropylamino)thieno[2,3-b]pyridine-5-carboxamide] | 75.6 nM
CC(C)CCNC(=O)c1cnc2sc(-c3cccnc3)cc2c1NC(C)C [Example 31, N-isopentyl-4-(isopropylamino)-2-(pyridin-3-yl) thieno[2,3-b]pyridine-5-carboxamide] | 35.1 nM
CC(C)CCNC(=O)c1cnc2sc(-c3ccnnc3)cc2c1NC(C)C [Example 33, N-isopentyl-4-(isopropylamino)-2-(pyridazin-4-yl)thieno[2,3-b]pyridine-5-carboxamide] | 29 nM
COCCNC(=O)c1cnc2sc(-c3cncs3)cc2c1NC(C)C [Example 34, 4-(isopropylamino)-N-(2-methoxyethyl)-2-(thiazol-5-yl)thieno[2,3-b]pyridine-5-carboxamide] | 30 nM
